Measurements: patent publication US9320698B2, “Peptide tyrosinase inhibitors and uses thereof” (Escape Therapeutics, Inc., priority 2011, dated 2016)
Blank lines part the entries; values can stand above or below the compound they belong to. No end group written: not given here.

How the values were obtained:
human tyrosinase = molecular target: T1, human tyrosinase (Homo sapiens, UniProt P14679); experiment: Inhibition of freshly extracted human tyrosinase, L-dopa as substrate; assay type: biochemical; conditions: at 200 μM
T1 construct: cells were harvested and lysed using 1% Triton X-100 in 0.067 M potassium phosphate buffer (pH 6.8); endogenous in cells; host or cells: primary human melanocytes (gift from Dr. Todd Ridky, Stanford), clarified Triton X-100 lysate
T1 sequence (P14679 19-529): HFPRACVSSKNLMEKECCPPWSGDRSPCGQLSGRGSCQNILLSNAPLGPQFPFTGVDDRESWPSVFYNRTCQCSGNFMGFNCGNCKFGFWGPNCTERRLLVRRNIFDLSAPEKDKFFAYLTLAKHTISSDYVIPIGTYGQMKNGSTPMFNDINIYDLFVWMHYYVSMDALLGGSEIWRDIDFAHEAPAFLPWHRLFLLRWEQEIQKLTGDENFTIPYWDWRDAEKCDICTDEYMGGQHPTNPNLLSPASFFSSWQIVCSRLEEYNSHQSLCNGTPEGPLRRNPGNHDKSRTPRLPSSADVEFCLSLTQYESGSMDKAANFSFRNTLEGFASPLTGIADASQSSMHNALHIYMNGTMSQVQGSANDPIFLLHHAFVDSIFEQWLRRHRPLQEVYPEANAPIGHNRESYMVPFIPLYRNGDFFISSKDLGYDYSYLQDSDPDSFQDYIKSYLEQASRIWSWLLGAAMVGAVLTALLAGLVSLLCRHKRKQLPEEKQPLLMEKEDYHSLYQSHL

mushroom tyrosinase [1] = molecular target: T2, mushroom tyrosinase (Agaricus bisporus, UniProt C7FF04); experiment: Kinetic studies of mushroom tyrosinase (Lineweaver-Burk, nonlinear regression); assay type: biochemical
Procedure: The concentration of mushroom tyrosinase [E] was 24 units/ml. […] [I] ranged from 0 to 0.3 mM. Data were obtained as mean values of 1/V, inverse of the increase of absorbance at wavelength of 475 nm per minute (ΔA475/min) for 5 independent trials. Michaelis Menten constant (Km) and the dissociation constant Ki were derived using nonlinear regression analysis with GraphPad Prism 5.
Experiments were conducted using the same protocol as above except for changes in concentration of [E], [S] and [I]. [E] was 24 units/ml, [S] was 0.05, 0.1, 0.25, 0.5, 0.75 and 1 mM, and [I] was 0, 0.03, 0.1, 0.3 and 1 mM. Lineweaver-Burk reciprocal plots were generated to determine the mode of inhibition (Burk, D., Lineweaver, H., and Horner, C. K. (1934) J Bacteriol 27, 325-340), and Michaelis Menten plots were used to determine Vmax and Km. Nonlinear regression using GraphPad Prism 5 software was used to determine Ki. Prism calculates the Ki using the equation of Cheng, Y., and Prusoff, W. H. (1973) Biochem Pharmacol 22, 3099-3108.

[2] = tested on: primary human fibroblasts; conditions: 72 h
Procedure: (§1) The three cell types were incubated with varying concentrations of the test compounds for 72 h at 37° C. and then processed using the MTT assay. Data are presented as % toxicity relative to the control as a function of concentration, and plotted as means±S.E of 5 independent trials. **p<0.01.
(§2) Keratinocytes, fibroblast, and melanocyte proliferation rates were determined using a TACS® MTT Cell Proliferation Kit (R&D systems, Minneapolis, Minn.). Cells were plated at 2.5×10^4/well in 96-well plates in a humidified atmosphere with 5% CO2 at 37° C. Twenty-four h after plating, test samples were added and cultures were incubated for an additional 72 h. The remainder of the procedure was performed following the manufacturer's protocol.
(§3) Proliferation rates were then assessed at 3 d using an MTT assay.

[3] = tested on: primary human melanocytes; conditions: 72 h
Procedure: as §1, §2, §3

[4] = tested on: primary human keratinocytes; conditions: 72 h
Procedure: as §1, §2, §3

tyrosinase = conditions: read-out: published IC50; published value; cited from earlier work
[5] = tested on: primary human fibroblasts; conditions: 6 d, 30 μM
Procedure: (§4) Cells were seeded at equal numbers and incubated with varying concentrations of test samples for 1 day, 3 days and 6 days, harvested, stained with trypan blue, and then counted. The assay was carried out in triplicate, and the % cell death was calculated according to the formula shown in Examples.
(§5) Cellular toxicity was measured using a trypan blue dye exclusion assay. Cells were cultured in 6-well plates at a density of 4×10^5 cells/well for 1, 3, or 6 d in 2 ml of medium. […] The plates were incubated at 37° C. in a humidified 5% CO2 chamber, harvested at the appropriate time, treated with trypan blue, and then counted using a hemacytometer. Cytotoxicity was measured according to the following formula: [1−(# of cells in control−# of live cells in test sample)/# of cells in control]×100%.
(§6) The cytotoxic effect of P16-18 on primary human melanocytes, keratinocytes, and fibroblasts were then assessed at 1, 3, and 6 d using trypan blue exclusion.

[6] = tested on: primary human melanocytes; conditions: 6 d
Procedure: as §4, §5, §6

[7] = tested on: primary human keratinocytes; conditions: 6 d
Procedure: as §4, §5, §6

MNTI cells = experiment: Melanin content measurement in MNTI cells; assay type: cell-based, human; conditions: 50 μM HQ, 3 days
[8] = tested on: melanocytes, keratinocytes and fibroblasts; conditions: for oligopeptides a minimum ratio (3 mM / IC50)
From the text: An ideal therapeutic agent should have a ratio that is higher than two to be considered safe for long-term use in humans.

mushroom tyrosinase [9] = molecular target: T2, mushroom tyrosinase; experiment: Enzymatic assay of mushroom tyrosinase, L-tyrosine as substrate; assay type: biochemical
Procedure: The assay mixture was incubated at 37° C.
In order to assess this potential, their inhibitory activity against mushroom tyrosinase was tested.

T2 sequence (C7FF04 1-392): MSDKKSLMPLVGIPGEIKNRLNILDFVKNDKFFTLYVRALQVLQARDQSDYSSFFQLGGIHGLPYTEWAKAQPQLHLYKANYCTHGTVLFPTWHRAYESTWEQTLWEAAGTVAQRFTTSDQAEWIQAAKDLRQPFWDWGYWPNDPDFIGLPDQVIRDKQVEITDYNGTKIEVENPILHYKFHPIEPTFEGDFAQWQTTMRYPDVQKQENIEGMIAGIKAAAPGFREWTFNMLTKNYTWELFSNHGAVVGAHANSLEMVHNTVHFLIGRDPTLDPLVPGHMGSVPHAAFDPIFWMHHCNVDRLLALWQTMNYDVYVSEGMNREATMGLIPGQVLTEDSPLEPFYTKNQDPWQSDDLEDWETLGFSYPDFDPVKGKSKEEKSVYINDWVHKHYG
T2 sequence (G1K3P4 entry or part of it, further chain): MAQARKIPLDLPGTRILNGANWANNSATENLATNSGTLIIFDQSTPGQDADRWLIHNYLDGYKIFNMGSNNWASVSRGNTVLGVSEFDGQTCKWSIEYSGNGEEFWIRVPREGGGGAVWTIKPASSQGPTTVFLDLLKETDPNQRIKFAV

Compound: Oc1ccc(O)cc1 [HQ, hydroquinone]
human tyrosinase activity reduced by (human tyrosinase): 5%
Nature of inhibition (mushroom tyrosinase [1]; Table 4, from Lineweaver Burk plots): competitive
reduction in proliferation rate ([2]; 100 μM): 45±2%
proliferation inhibited by ([2]; 3 mM): over 90%
reduction in proliferation rate ([3]; 100 μM): 50±3%
proliferation inhibited by ([3]; 3 mM): over 90%
reduction in proliferation rate ([4]; 100 μM): 30±3%
proliferation inhibited by ([4]; 3 mM): up to 63±3%
IC50 (tyrosinase): ~700 µM
cell death [5]: 60±2%
melanocyte cell death ([6]; 20 μM): 50±3%
cell death ([6]; 30 μM): 70±3%
cytotoxicity / cell death ([6]; 100 μM): 100%
cell death ([7]; 300 μM): 42±3%
rate of cell death ([7]; 3 mM): 77±4%
melanin content reduced by (MNTI cells): 50±4%
ratio of 50% cytotoxic concentration to IC50 [8]: significantly less than one

Compound: RRFVCC (chains of the parent or of the whole protein) [Peptide P15]
Ki (mushroom tyrosinase [1]; Table 4, mushroom tyrosinase): 167 ± 11 µM
IC50 (mushroom tyrosinase [9]; Table 4, mushroom tyrosinase): 1120 ± 50 µM
IC50 (mushroom tyrosinase [9]; mushroom tyrosinase): 1100 µM

Compound: RRFVCC [Peptide P15]
tyrosinase inhibition (in words) (mushroom tyrosinase [9]; mushroom tyrosinase): weak inhibition

Compound: RRFVLL [Peptide P14]
IC50 (mushroom tyrosinase [9]; mushroom tyrosinase): 1800 µM

human tyrosinase activity reduced by (human tyrosinase): 12%
Compound: RRRYWYYR [Peptide P17]

human tyrosinase activity reduced by (human tyrosinase): 30%
Compound: RRWWRRYY [Peptide P16]

human tyrosinase activity reduced by (human tyrosinase): 25%
Compound: RRYWYWRR [Peptide P18]
